# In paper PMC8222176 (Acta biomaterialia, 2021):
# Assays:
# [1] = target: T1, MelBSt (Salmonella typhimurium, UniProt P30878); settings: 1.5 wt% detergent, further 90 min at 55 °C
# [2] = system: LeuT; experiment: LeuT stability assay; type: biochemical, Aquifex aeolicus; settings: detergent at CMC + 0.04 wt%, 13-day incubation, room temperature
# [3] = target: μ-opioid receptor (MOR) (Mus musculus, UniProt P42866); experiment: MOR stability assay; type: biochemical; settings: 0.1 wt% detergent, 3-day incubation at room temperature
# [4] = type: physicochemical; settings: in water at room temperature; DPH dye
# [5] = target: T1, MelBSt; type: biochemical; settings: MelBSt extracted with 1.0 wt% detergent
# [6] = Water-solubility of detergents; type: physicochemical; settings: in water
# [7] = Hydrodynamic diameter of detergent self-assemblies by dynamic light scattering; type: physicochemical; settings: 1.0 wt% detergent, water, room temperature, n = 4
# [8] = target: T2, MelBEc (Escherichia coli, UniProt P02921); experiment: MelB Trp→D2G FRET assay; type: biochemical, E. coli; settings: MelBEc extracted with 1.0 wt% detergent
# [9] = target: T2, MelBEc; settings: read-out: Apparent Kd, in the presence of Na+; cited from earlier work
# [10] = target: T1, MelBSt; settings: read-out: Apparent Kd, in the presence of Na+; cited from earlier work
# T1 sequence (P30878 whole entry): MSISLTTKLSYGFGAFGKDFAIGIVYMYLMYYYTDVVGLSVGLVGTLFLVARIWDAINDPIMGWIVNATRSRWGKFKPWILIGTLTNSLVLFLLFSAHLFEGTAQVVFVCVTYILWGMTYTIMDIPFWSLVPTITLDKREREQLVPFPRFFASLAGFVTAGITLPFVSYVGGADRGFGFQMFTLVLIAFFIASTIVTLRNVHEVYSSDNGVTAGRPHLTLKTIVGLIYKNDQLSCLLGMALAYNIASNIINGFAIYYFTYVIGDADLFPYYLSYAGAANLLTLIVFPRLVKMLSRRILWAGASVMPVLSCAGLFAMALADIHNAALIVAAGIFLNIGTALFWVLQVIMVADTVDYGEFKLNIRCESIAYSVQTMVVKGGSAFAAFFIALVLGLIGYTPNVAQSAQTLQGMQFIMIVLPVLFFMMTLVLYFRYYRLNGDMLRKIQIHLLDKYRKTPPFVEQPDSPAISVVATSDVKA
# T2 sequence (P02921 whole entry): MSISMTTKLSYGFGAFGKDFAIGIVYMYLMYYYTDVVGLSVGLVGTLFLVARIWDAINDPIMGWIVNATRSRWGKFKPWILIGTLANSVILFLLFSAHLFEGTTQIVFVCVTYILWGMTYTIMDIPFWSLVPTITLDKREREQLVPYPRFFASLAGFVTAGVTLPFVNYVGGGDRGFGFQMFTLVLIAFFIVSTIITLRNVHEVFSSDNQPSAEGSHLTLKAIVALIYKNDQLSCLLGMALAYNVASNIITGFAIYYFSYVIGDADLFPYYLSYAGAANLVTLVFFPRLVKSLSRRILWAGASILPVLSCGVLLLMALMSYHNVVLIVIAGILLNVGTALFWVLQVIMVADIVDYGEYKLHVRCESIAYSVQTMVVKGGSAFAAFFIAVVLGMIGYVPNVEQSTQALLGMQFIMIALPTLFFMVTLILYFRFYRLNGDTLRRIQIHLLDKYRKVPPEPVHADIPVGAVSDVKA
# Sequence of μ-opioid receptor (MOR) (P42866 whole entry): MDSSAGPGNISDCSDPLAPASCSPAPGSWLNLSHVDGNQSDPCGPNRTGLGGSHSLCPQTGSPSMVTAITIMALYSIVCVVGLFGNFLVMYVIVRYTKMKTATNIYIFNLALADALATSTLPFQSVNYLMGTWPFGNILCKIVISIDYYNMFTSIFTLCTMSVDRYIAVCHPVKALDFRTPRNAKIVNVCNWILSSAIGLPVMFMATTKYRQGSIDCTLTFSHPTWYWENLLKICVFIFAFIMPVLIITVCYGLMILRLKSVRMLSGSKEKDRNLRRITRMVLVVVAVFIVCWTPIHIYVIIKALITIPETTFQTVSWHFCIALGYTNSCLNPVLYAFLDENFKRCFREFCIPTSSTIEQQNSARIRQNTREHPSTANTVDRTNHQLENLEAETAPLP
SMILES,soluble MelBSt after incubation [1],LeuT long-term stability ([3H]-Leu binding ability) [2],MOR long-term stability ([3H]-DPN binding ability) [3],CAC (critical aggregation concentration) [4],fluorescence response to D2G and melibiose (MelB function) [5],Solubility (water-solubility) [6],Dh (hydrodynamic diameter of aggregates) [7],fluorescence response to D2G and melibiose (MelB function) [8],Kd [9],Kd [10]
"CCCCCCCCCCCCO[C@@H]1O[C@H](CO)[C@@H](O[C@H]2O[C@H](CO)[C@@H](O)[C@H](O)[C@H]2O)[C@H](O)[C@H]1O [DDM, n-dodecyl-β-D-maltoside]",little DDM-solubilized MelBSt detectable,steady decrease in the substrate binding ability over time,complete loss in ligand binding ability after a 1-day incubation,170 µM,responsive to the successive addition of D^2G and melibiose,~10 wt%,6.8 ± 0.6 nm,no response was observed,,
"CN(C)c1cccc2c(S(=O)(=O)NCCS[C@@H]3O[C@H](CO)[C@H](O)[C@H](O)[C@H]3O)cccc12 [D^2G, 2′-(N-Dansyl)aminoalkyl-1-thio-β-D-galactopyranoside]",,,,,,,,,3.1 µM,10.3 µM
OC[C@H]1O[C@H](OCC2O[C@@H](O)[C@H](O)[C@@H](O)[C@@H]2O)[C@H](O)[C@@H](O)[C@H]1O (stereo partly drawn) [melibiose],,,,,,,,,490 µM,1070 µM
